Among the data in patent US20170368207A1, “SELF-ASSEMBLED NANOSTRUCTURE AND METHOD FOR PREPARING THE SAME” (National Chiao Tung University, priority 2016, published 2017) are Relaxivity values, retold here.

Structures are written as SMILES.

The series in a line: Relaxivity of contrast agents (Table 4). Format: physicochemical. The text has this:
Relaxivities of a self-assembled nanostructure of the invention, gadodiamide, and carboxymethyl hexanoyl chitosan that physically encapsulates gadodiamide are as shown in Table 4. Hereinafter, the symbol “CHC+Gd” represents that there is only physical mixing between gadodiamide and carboxymethyl hexanoyl chitosan, while the symbol “CHC−Gd” represents that chemical bonding exists between gadodiamide and carboxymethyl hexanoyl chitosan (i.e., the self-assembled nanostructure of the invention).
As a molecule grafted to a paramagnetic metal of a contrast agent is larger, a rotation time between the paramagnetic metal and a solvent molecule becomes longer, so that the relaxivity of the contrast agent is enhanced. The higher the relaxivity of the contrast agent, the better the contrast effect, i.e., the more excellent the contrasting ability. In the self-assembled nanostructure of the invention, gadolinium (paramagnetic metal) has an amphiphilic chitosan (polymer) grafted thereto, and thus has a higher relaxivity than the relaxivities of the single gadodiamide and CHC+Gd. […] In other words, the contrast agent compound of the invention, after being grafted to the amphiphilic chitosan, produces a synergistic effect on the contrasting ability of the contrast agent compound.

As for `CNC(=O)CN(CCN(CCN(CC(=O)[O-])CC(=O)NC)CC(=O)[O-])CC(=O)[O-].[Gd+3]` [Gadodiamide, gadodiamide], the Relaxivity came out at 1.8158 mM⁻¹ s⁻¹.
